Results as given in BindingDB's records for doi:10.1016/j.bioorg.2017.01.003 (Comsats Institute of Information Technology, 2017).

Legend:
5'-nucleotidase [1] = molecular target: T1, 5'-nucleotidase (Rattus norvegicus, UniProt P21588); assay: Ecto-5'-Nucleotidase Inhibition Assay; conditions: pH 7.4; 37 °C
T1 sequence (P21588 whole entry): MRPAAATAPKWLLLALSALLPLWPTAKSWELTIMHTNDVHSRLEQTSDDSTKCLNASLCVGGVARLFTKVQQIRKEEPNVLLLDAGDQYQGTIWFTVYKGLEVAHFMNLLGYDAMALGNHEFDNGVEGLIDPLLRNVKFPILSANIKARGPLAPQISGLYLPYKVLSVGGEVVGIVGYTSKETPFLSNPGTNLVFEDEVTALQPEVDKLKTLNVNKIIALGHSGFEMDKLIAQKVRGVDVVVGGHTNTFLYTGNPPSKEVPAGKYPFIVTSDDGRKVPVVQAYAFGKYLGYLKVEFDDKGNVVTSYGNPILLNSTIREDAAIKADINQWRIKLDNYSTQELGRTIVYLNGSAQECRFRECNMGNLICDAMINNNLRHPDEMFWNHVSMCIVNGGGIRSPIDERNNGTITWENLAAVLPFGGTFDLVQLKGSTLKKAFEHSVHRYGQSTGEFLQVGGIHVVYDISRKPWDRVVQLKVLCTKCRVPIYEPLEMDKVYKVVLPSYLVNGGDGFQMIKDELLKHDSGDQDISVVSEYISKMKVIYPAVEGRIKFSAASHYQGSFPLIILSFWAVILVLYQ
Protocol: (§1) Then the mixture was placed in water bath at 99 °C for 20 min to stop the enzymatic reaction by thermal denaturation of protein. The aliquots of 50 μL of this reaction mixture were transferred into CE mini vials and injected hydrodynamically into the capillary under pressure of 0.5 psi for 5 s, followed by the application of 15 kV voltage for separation of substrate and product peaks.

5'-nucleotidase [2] = molecular target: 5'-nucleotidase (Homo sapiens, UniProt P21589); assay: Ecto-5'-Nucleotidase Inhibition Assay; conditions: pH 7.4; 37 °C
Protocol: as §1

[3] = molecular target: Intestinal-type alkaline phosphatase (Bos taurus, UniProt P19111); assay: Alkaline Phosphatase Assay; conditions: pH 9.8; 37 °C
Protocol: Alkaline phosphatase assay was optimized and performed in the same way as previously reported method with slight modifications [Sergienko et al., Nat. Protoc., 5:1431-1439]. All compounds were analyzed at a final concentration of 200 μM (1% DMSO) by using assay buffer with composition of […] diethanolamine (DEA) (pH 9.8), 0.05 mM ZnCl2 and 2.5 mM MgCl2. The total reaction volume was kept 50 μL containing 10 μL of tested compound, 20 μL of b-TNAP (1:800 (0.8 units/mL) diluted enzyme in assay buffer) or c-IAP (1:800 (1 units/mL) diluted enzyme in assay buffer). After incubation for 3-5 min at 37 °C., the luminescence was measured as a pre-read using microplate reader (BioTek FLx800, Instruments, Inc. USA). Then, 20 μL of substrate (CDPstar®) (final concentration of 110 μM) was added to the reaction mixture to initiate the enzymatic reaction. The change in the luminescence was recorded after 15 min. at 37 °C. The activity of each compound was measured in comparison with control (without any inhibitor). Levamisole (2 mM per well) and L-phenylalanine (4 mM per well) were used as standards (positive control) against b-TNAP) and c-IAP), respectively.

[4] = Alkaline Phosphatase Assay; conditions: pH 9.8; 37 °C

Chain of 5'-nucleotidase (Homo sapiens, UniProt P21589) (P21589 whole entry): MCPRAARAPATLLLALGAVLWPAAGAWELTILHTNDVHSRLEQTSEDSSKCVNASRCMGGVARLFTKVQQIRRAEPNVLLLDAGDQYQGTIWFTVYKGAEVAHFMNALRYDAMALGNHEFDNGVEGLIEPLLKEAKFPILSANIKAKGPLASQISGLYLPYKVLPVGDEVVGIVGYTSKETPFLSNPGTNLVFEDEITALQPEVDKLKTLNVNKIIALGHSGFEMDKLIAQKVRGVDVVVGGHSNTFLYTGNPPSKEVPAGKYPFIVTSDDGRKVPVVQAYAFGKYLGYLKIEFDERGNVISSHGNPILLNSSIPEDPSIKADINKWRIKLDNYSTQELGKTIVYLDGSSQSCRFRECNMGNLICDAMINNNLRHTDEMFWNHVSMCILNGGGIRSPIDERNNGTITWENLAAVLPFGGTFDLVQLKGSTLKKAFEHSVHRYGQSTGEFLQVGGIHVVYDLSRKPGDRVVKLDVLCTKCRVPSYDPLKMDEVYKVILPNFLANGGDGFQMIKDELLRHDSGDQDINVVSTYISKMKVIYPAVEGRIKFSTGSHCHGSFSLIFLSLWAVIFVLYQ
Chain of Intestinal-type alkaline phosphatase (P19111 whole entry): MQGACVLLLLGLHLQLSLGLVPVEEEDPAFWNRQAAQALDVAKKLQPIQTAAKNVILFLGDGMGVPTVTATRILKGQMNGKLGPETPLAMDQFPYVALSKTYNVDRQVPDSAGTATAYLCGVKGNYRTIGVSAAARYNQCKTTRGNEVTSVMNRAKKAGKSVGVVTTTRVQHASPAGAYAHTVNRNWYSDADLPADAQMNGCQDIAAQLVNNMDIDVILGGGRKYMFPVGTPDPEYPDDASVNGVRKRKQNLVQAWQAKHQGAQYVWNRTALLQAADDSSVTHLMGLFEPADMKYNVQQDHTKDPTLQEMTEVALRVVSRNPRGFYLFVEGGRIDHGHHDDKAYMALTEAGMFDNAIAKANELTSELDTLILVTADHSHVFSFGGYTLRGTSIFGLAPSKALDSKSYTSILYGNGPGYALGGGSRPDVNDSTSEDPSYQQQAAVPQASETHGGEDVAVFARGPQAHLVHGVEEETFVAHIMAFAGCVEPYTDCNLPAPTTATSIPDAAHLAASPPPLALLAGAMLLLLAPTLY

For `COc1cc(/C=C/C(=O)/C(=N/Nc2ccc(S(N)(=O)=O)cc2)N2CCOCC2)cc(OC)c1OC` [(Z)-4-(2-((E)-1-morpholino-2-oxo-4-(3,4,5-Trimethoxyphenyl)but-3-enylidene) hydrazinyl)benzenesulfonamide (4f)], which IC50 (5'-nucleotidase [1]) is on record?
Its IC50 is 680 nM.

And the IC50 (5'-nucleotidase [2])?
The IC50 was 1750 nM.

What about the IC50 [3] of the same compound?
The IC50 was 2570 nM.

For `NS(=O)(=O)c1ccc(N/N=C(/C(=O)/C=C/c2cccc([N+](=O)[O-])c2)N2CCOCC2)cc1` [(Z)-4-(2-((E)-1-morpholino-4-(3-Nitrophenyl)-2-oxobut-3-enylidene)hydrazinyl) benzenesulfonamide (4j)], which IC50 [3] is on record?
Its IC50 is 740 nM.

Which IC50 (5'-nucleotidase [1]) does the source give for `COc1ccc(/C=C/C(=O)/C(=N/Nc2ccc(S(N)(=O)=O)cc2)N2CCOCC2)cc1OC` [(Z)-4-(2-((E)-4-(3,4-dimethoxyphenyl)-1-morpholino-2-oxobut-3-enylidene) hydrazinyl) benzenesulfonamide (4e)] here?
The IC50 was 7410 nM.

And the IC50 [3]?
Its IC50 is 350 nM.

With `NS(=O)(=O)c1ccc(N/N=C(/C(=O)/C=C/c2ccccc2F)N2CCOCC2)cc1` [(Z)-4-(2-((E)-4-(2-fluorophenyl)-1-morpholino-2-oxobut-3-enylidene)hydrazinyl) benzene-sulfonamide (4g)] as the compound, how does the IC50 [3] read?
The IC50 was 440 nM.

With `NS(=O)(=O)c1ccc(N/N=C(/C(=O)/C=C/c2ccc(Cl)cc2Cl)N2CCOCC2)cc1` [(Z)-4-(2-((E)-4-(2,4-dichlorophenyl)-1-morpholino-2-oxobut-3-enylidene)hydrazinyl) benzenesulfonamide (4b)] as the compound, how does the IC50 (5'-nucleotidase [1]) read?
Its IC50 is 2850 nM.

What about the IC50 (5'-nucleotidase [2]) of the same compound?
The IC50 was 3320 nM.

What about the IC50 [3] of the same compound?
Its IC50 is 680 nM.

With `NS(=O)(=O)c1ccc(N/N=C(/C(=O)/C=C/c2cccc(F)c2)N2CCOCC2)cc1` [(Z)-4-(2-((E)-4-(3-fluorophenyl)-1-morpholino-2-oxobut-3-enylidene)hydrazinyl) benzenesulfonamide (4h)] as the compound, how does the IC50 [3] read?
The IC50 was 730 nM.

Which IC50 [3] does the source give for `COc1cccc(/C=C/C(=O)/C(=N/Nc2ccc(S(N)(=O)=O)cc2)N2CCOCC2)c1` [(Z)-4-(2-((E)-4-(3-methoxyphenyl)-1-morpholino-2-oxobut-3-enylidene)hydrazinyl) benzenesulfonamide (4c)] here?
Its IC50 is 990 nM.

With `NS(=O)(=O)c1ccc(N/N=C(/C(=O)/C=C/c2ccccc2Br)N2CCOCC2)cc1` [(Z)-4-(2-((E)-4-(2-bromophenyl)-1-morpholino-2-oxobut-3-enylidene)hydrazinyl) benzenesulfonamide (4i)] as the compound, how does the IC50 (5'-nucleotidase [1]) read?
Its IC50 is 22400 nM.

What about the IC50 (5'-nucleotidase [2]) of the same compound?
The IC50 was 2920 nM.

What about the IC50 [3] of the same compound?
Its IC50 is 1210 nM.

For `COc1ccc(/C=C/C(=O)/C(=N/Nc2ccc(S(N)(=O)=O)cc2)N2CCOCC2)cc1` [(Z)-4-(2-((E)-4-(4-methoxyphenyl)-1-morpholino-2-oxobut-3-enylidene)hydrazinyl) benzenesulfonamide (4d)], which IC50 [4] is on record?
Its IC50 is 330 nM.

And the IC50 [3]?
The IC50 was 1710 nM.

Which results are given for `NS(=O)(=O)c1ccc(N/N=C(/C(=O)/C=C/c2ccccc2Cl)N2CCOCC2)cc1` [(Z)-4-(2-((E)-4-(2-chlorophenyl)-1-morpholino-2-oxobut-3-enylidene)hydrazinyl) benzenesulfonamide (4a)]?
IC50 (5'-nucleotidase [1]): 6430 nM; IC50 (5'-nucleotidase [2]): 11600 nM; IC50 [3]: 120 nM
